Laboratory results as given in patent publication US10610522B2, “Methods for retreating irritable bowel syndrome (IBS)” (Salix Pharmaceuticals, Inc., priority 2014, dated 2020).

Test system: d-IBS
Experiment: Study of rifaximin BID doses vs placebo in subjects with d-IBS: adequate relief of IBS symptoms and bloating
Type: in vivo, human
Conditions: for Percentage of subjects with adequate relief of IBS symptoms / Percentage of subjects with adequate relief of bloating symptom: RFX 550 mg BID 14 d, at least 2 of final 3 weeks of treatment phase (Weeks 1-4); for Adequate relief of bloating, post treatment, Failures / Adequate relief of bloating, post treatment, Success / Adequate relief of bloating, post treatment, Failure: RFX 550 2w (N = 54); for Patients with adequate relief of bloating / Patients with adequate relief of global IBS symptoms: 550 mg BID 14 d
Method: This example relates to a study of rifaximin in subjects with d-IBS. […] There were two measures of efficacy assessed. Subjects were questioned on the relief of overall IBS symptoms and bloating. […] The analyses defined success as a “yes” response to questions regarding adequate relief.
All subpopulations in the study responded to therapy. Baseline severity was determined using 7-point Lickert scales during screening for Abdominal Pain/Discomfort and Bloating, and the number, type (normal, hard, loose) and urgency of bowel movements.
Duration of effect was assessed in a follow-up period. Subjects that responded in the 4 week treatment period were followed for an additional 3 months.
The effect of treatment on the percentage of subjects who reported adequate relief of IBS and bloating symptoms for at least two of the final three weeks during the treatment phase (Weeks 1 to 4) is shown in Tables 5-7 and FIGS. 4-6 below.
The study assessed the effect over 12 weeks of follow-up on long-term adequate relief. Subjects who had adequate relief by Week 4 and remained symptom-free at Week 5 were followed during the post-treatment phase and shown in FIGS. 1 and 2. Superiority to placebo was maintained during the 12 weeks post-treatment follow-up. Results for IBS symptoms were RFX 550 mg BID 62.3% versus placebo 49.2%, and RFX 550 mg BID 59.3% versus 50.9% for placebo for the symptom of bloating through week 16. In assessing the follow-up data, there was statistical significance (p<0.05) of bloating and IBS symptoms for RFX 550 mg BID versus placebo.
Two measures of efficacy were assessed independently. The first was the proportion of subjects who provided a ‘yes’ response to the weekly SGA question: “In the past 7 days, have you had adequate relief of your IBS symptoms? (yes/no)”. The second endpoint was the proportion of subjects who provide a ‘yes’ response to the weekly individual symptom question: “In the past 7 days, have you had adequate relief of your symptom of bloating? (yes/no)”. Durability was based on the proportion of subjects that had adequate relief over the entire treatment phase.
It is reported herein that the severity of baseline symptoms of abdominal pain and bloating influenced the response to rifaximin treatment. The co-primary endpoints in this analysis assessed weekly yes/no responses to questions regarding adequate relief of global IBS symptoms and IBS-associated bloating. Severity of baseline IBS symptoms was evaluated as a potential confounder of clinical response and was categorized as mild/moderate or severe based on a mean score of ≤4 vs. >4 (on a 7-point scale) for bloating and abdominal pain.
The Weekly yes/no responses to questions regarding adequate relief of global IBS symptoms and IBS-associated bloating were assessed. Clinical response was defined as adequate relief for 2 of the final 3 treatment weeks (wk 2, 3, or 4). Severity of baseline IBS symptoms was evaluated as a potential confounder of clinical response and was categorized as mild/moderate or severe based on a mean score of ≤4 versus >4 (on a 7-point scale (0=not bothersome; 6=very bothersome)) for bloating and abdominal pain.

[1] = RFX 550 mg BID, responders followed through week 16
[2] = patients with mild/moderate abdominal pain at baseline
[3] = patients with mild/moderate bloating at baseline

## CO[C@H]1/C=C/O[C@@]2(C)Oc3c(C)c(O)c4c(O)c(c5c(nc6cc(C)ccn65)c4c3C2=O)NC(=O)/C(C)=C\C=C\[C@H](C)[C@H](O)[C@@H](C)[C@@H](O)[C@@H](C)[C@H](OC(C)=O)[C@@H]1C [Rifaximin, (2S,16Z,18E,20S,21S,22R,23R,24R,25S,26S,27S,28E)-5,6,21,23,25 Pentahydroxy-27-methoxy-2,4,11,16,20,22,24,26-octamethyl-2,7-(epoxypentadeca-(1,11,13)trienimino) benzofuro (4,5-e) pyrido(1,2-a) benzimidazole-1,15(2H)-dione,25-acetate]
Age <65
  Treatment effect, Bloating: 6.8%
  Treatment effect, IBS Sx: 6.9%
Age ≥65
  Treatment effect, Bloating: 3.2%
  Treatment effect, IBS Sx: 19.1%
Diabetes History N
  Treatment effect, Bloating: 7.4%
  Treatment effect, IBS Sx: 9.5%
Diabetes History Y
  Treatment effect, Bloating: −5.6%
  Treatment effect, IBS Sx: −12.7%
Disease Duration 10-20 y
  Treatment effect, Bloating: 11.7%
  Treatment effect, IBS Sx: 20.1%
Disease Duration >20 y
  Treatment effect, Bloating: 35.1%
  Treatment effect, IBS Sx: 46.6%
Disease Duration ≤10 y
  Treatment effect, Bloating: 2.8%
  Treatment effect, IBS Sx: 1.8%
Female, RFX 275 2w
  Adequate relief of IBS symptoms at end of treatment phase, Failure: 46 (56.8%) n (%)
  Adequate relief of IBS symptoms at end of treatment phase, Success: 35 (43.2%) n (%)
  Adequate relief of bloating at end of treatment phase, Failure: 52 (64.2%) n (%)
  Adequate relief of bloating at end of treatment phase, Success: 29 (35.8%) n (%)
Female, RFX 550 2w
  Adequate relief of IBS symptoms at end of treatment phase, Failure: 66 (48.2%) n (%)
  Adequate relief of IBS symptoms at end of treatment phase, Success: 71 (51.8%) n (%)
  Adequate relief of bloating at end of treatment phase, Failure: 74 (54.0%) n (%)
  Adequate relief of bloating at end of treatment phase, Success: 63 (46.0%) n (%)
Female, RFX 550 4w
  Adequate relief of IBS symptoms at end of treatment phase, Failure: 42 (55.3%) n (%)
  Adequate relief of IBS symptoms at end of treatment phase, Success: 34 (44.7%) n (%)
  Adequate relief of bloating at end of treatment phase, Failure: 44 (57.9%) n (%)
  Adequate relief of bloating at end of treatment phase, Success: 32 (42.1%) n (%)
Female, RFX 1100 2w
  Adequate relief of IBS symptoms at end of treatment phase, Failure: 44 (60.3%) n (%)
  Adequate relief of IBS symptoms at end of treatment phase, Success: 29 (39.7%) n (%)
  Adequate relief of bloating at end of treatment phase, Failure: 45 (61.6%) n (%)
  Adequate relief of bloating at end of treatment phase, Success: 28 (38.4%) n (%)
Gender F
  Treatment effect, Bloating: 3.9%
  Treatment effect, IBS Sx: 3.5%
Gender M
  Treatment effect, Bloating: 13.6%
  Treatment effect, IBS Sx: 21%
Male, RFX 275 2w
  Adequate relief of IBS symptoms at end of treatment phase, Failure: 9 (64.3%) n (%)
  Adequate relief of IBS symptoms at end of treatment phase, Success: 5 (35.7%) n (%)
  Adequate relief of bloating at end of treatment phase, Failure: 8 (57.1%) n (%)
  Adequate relief of bloating at end of treatment phase, Success: 6 (42.9%) n (%)
Male, RFX 550 2w
  Adequate relief of IBS symptoms at end of treatment phase, Failure: 25 (46.3%) n (%)
  Adequate relief of IBS symptoms at end of treatment phase, Success: 29 (53.7%) n (%)
  Adequate relief of bloating at end of treatment phase, Failure: 29 (53.7%) n (%)
  Adequate relief of bloating at end of treatment phase, Success: 25 (46.3%) n (%)
Male, RFX 550 4w
  Adequate relief of IBS symptoms at end of treatment phase, Failure: 15 (68.2%) n (%)
  Adequate relief of IBS symptoms at end of treatment phase, Success: 7 (31.8%) n (%)
  Adequate relief of bloating at end of treatment phase, Failure: 16 (72.7%) n (%)
  Adequate relief of bloating at end of treatment phase, Success: 6 (27.3%) n (%)
Male, RFX 1100 2w
  Adequate relief of IBS symptoms at end of treatment phase, Failure: 14 (53.8%) n (%)
  Adequate relief of IBS symptoms at end of treatment phase, Success: 12 (46.2%) n (%)
  Adequate relief of bloating at end of treatment phase, Failure: 16 (61.5%) n (%)
  Adequate relief of bloating at end of treatment phase, Success: 10 (38.5%) n (%)
ITT
  Percentage of subjects with adequate relief of IBS symptoms: 52%
  Percentage of subjects with adequate relief of bloating symptom: 46%
ITT, listed as RFX
  Percentage of subjects with adequate relief of IBS symptoms: 52.4%
  Percentage of subjects with adequate relief of bloating symptom: 46.1%
RFX 550 mg BID, ITT
  Percentage of subjects with 0 weeks with adequate relief of IBS symptoms: 33%
  Percentage of subjects with 0 weeks with adequate relief of bloating symptoms: 35%
  Percentage of subjects with 1 week with adequate relief of IBS symptoms: 11%
  Percentage of subjects with 1 week with adequate relief of bloating symptoms: 14%
  Percentage of subjects with 2 weeks with adequate relief of IBS symptoms: 15%
  Percentage of subjects with 2 weeks with adequate relief of bloating symptoms: 15%
  Percentage of subjects with 3 weeks with adequate relief of IBS symptoms: 23%
  Percentage of subjects with 3 weeks with adequate relief of bloating symptoms: 20%
  Percentage of subjects with 4 weeks with adequate relief of IBS symptoms: 16%
  Percentage of subjects with 4 weeks with adequate relief of bloating symptoms: 14%
[1]
  Long-term adequate relief of IBS symptoms in post-treatment follow-up: 62.3%
  Long-term adequate relief of the symptom of bloating in post-treatment follow-up: 59.3%
Week 6
  Adequate relief of bloating, post treatment, Failures: 5 (9.3%) n (%)
  Adequate relief of bloating, post treatment, Success: 49 (90.7%) n (%)
Week 7
  Adequate relief of bloating, post treatment, Failures: 9 (16.7%) n (%)
  Adequate relief of bloating, post treatment, Success: 45 (83.3%) n (%)
Week 8
  Adequate relief of bloating, post treatment, Failures: 7 (13.0%) n (%)
  Adequate relief of bloating, post treatment, Success: 47 (87.0%) n (%)
Week 9
  Adequate relief of bloating, post treatment, Failures: 15 (27.8%) n (%)
  Adequate relief of bloating, post treatment, Success: 39 (72.2%) n (%)
Week 10
  Adequate relief of bloating, post treatment, Failures: 15 (27.8%) n (%)
  Adequate relief of bloating, post treatment, Success: 39 (72.2%) n (%)
Week 11
  Adequate relief of bloating, post treatment, Failures: 19 (35.2%) n (%)
  Adequate relief of bloating, post treatment, Success: 35 (64.8%) n (%)
Week 12
  Adequate relief of bloating, post treatment, Failure: 18 (33.3%) n (%)
  Adequate relief of bloating, post treatment, Success: 36 (66.7%) n (%)
Week 13
  Adequate relief of bloating, post treatment, Failure: 21 (38.9%) n (%)
  Adequate relief of bloating, post treatment, Success: 33 (61.1%) n (%)
Week 14
  Adequate relief of bloating, post treatment, Failure: 20 (37.0%) n (%)
  Adequate relief of bloating, post treatment, Success: 34 (63.0%) n (%)
Week 15
  Adequate relief of bloating, post treatment, Failure: 23 (42.6%) n (%)
  Adequate relief of bloating, post treatment, Success: 31 (57.4%) n (%)
Week 16
  Adequate relief of bloating, post treatment, Failure: 22 (40.7%) n (%)
  Adequate relief of bloating, post treatment, Success: 32 (59.3%) n (%)
aIBS
  Treatment effect, Bloating: 31.4%*, 31.4%
  Treatment effect, IBS Sx: 31.4%*, 31.4%
dIBS only
  Treatment effect, Bloating: 4.5%
  Treatment effect, IBS Sx: 6.3%
[2]
  Patients with adequate relief of bloating: 44%
  Patients with adequate relief of global IBS symptoms: 50%
[3]
  Patients with adequate relief of bloating: 47%
  Patients with adequate relief of global IBS symptoms: 56%
